# Results from ChEMBL document CHEMBL5126506, “Coumarin-benzimidazole hybrids: A review of developments in medicinal chemistry” (Eur J Med Chem, 2022).
# Experiments:
# [1] = Antibacterial activity against Xanthomonas citri assessed as zone of inhibition at 25 ug/ml; assay type: functional; settings: read-out: DIZ
# Escherichia coli [2] = assay: Antibacterial activity against Escherichia coli assessed as zone of inhibition at 25 ug/ml; assay type: functional; settings: read-out: DIZ
# [3] = target: Serum paraoxonase/arylesterase 1 (Homo sapiens, UniProt P27169); assay: Inhibition of human PON1 using paraoxon as a substrate by regression analysis
# Chain of Serum paraoxonase/arylesterase 1 (P27169 whole entry): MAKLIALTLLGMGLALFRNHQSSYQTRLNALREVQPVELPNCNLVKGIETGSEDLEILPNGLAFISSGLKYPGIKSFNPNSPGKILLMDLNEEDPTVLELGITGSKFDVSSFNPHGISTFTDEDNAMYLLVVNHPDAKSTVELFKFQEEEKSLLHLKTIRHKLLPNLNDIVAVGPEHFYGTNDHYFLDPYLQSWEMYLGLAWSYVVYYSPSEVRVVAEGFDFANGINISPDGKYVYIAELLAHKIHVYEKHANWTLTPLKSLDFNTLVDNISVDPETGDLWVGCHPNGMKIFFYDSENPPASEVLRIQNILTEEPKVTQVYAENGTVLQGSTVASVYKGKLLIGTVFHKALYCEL
# Bacillus subtilis [4] = assay: Antibacterial activity against Bacillus subtilis MTCC 1789 measured after 16 hrs by CLSI based microtitre broth dilution method; assay type: functional
# Staphylococcus aureus [5] = assay: Antibacterial activity against Staphylococcus aureus ATCC 6538P measured after 16 hrs by CLSI based microtitre broth dilution method; assay type: functional
# Pseudomonas aeruginosa [6] = assay: Antibacterial activity against Pseudomonas aeruginosa ATCC 25668 measured after 16 hrs by CLSI based microtitre broth dilution method; assay type: functional
# Escherichia coli [7] = assay: Antibacterial activity against Escherichia coli MTCC 739 measured after 16 hrs by CLSI based microtitre broth dilution method; assay type: functional
# Staphylococcus aureus [8] = assay: Antibacterial activity against Staphylococcus aureus ATCC 6538 assessed as zone of inhibition at 500 ug per disk measured after 24 hrs by NCCLS based disk diffusion method; assay type: functional; settings: read-out: DIZ
# [9] = Antioxidant activity assessed as DPPH radical scavenging activity incubated for 10 mins in dark condition by spectrophotometer method; assay type: functional
# Pseudomonas aeruginosa [10] = assay: Antibacterial activity against Pseudomonas aeruginosa assessed as cell growth inhibition measured after 24 hrs by serial broth-dilution method; assay type: functional
# Mus musculus = assay: Antiinflammatory activity in carrageenan induced mouse paw oedema model assessed as inhibition of paw oedema at 100 mg/kg, po pretreated with compound for 30 mins followed by carrageenan injection measured after 5 hrs relative to control; assay type: functional; design: scale not given: the % may be the effect or the level left; settings: time 5.5 hrs
# Metaphire sieboldi = assay: Anthelmintic activity against Metaphire sieboldi assessed as mean paralysing time up to 0.5% w/v; assay type: functional
# [11] = Antioxidant activity assessed as DPPH radical scavenging activity preincubated for 24 hrs followed by dark incubation 30 mins by UV-visible spectrophotometer method; assay type: functional
# Aspergillus flavus [12] = assay: […] activity against Aspergillus flavus assessed as zone of inhibition measured after 24 hrs by agar well diffusion method; assay type: functional
# Aspergillus flavus [13] = assay: […] activity against Aspergillus flavus assessed as cell growth inhibition measured after 24 hrs by serial broth-dilution method; assay type: functional
# Escherichia coli [14] = assay: Antibacterial activity against Escherichia coli assessed as zone of inhibition measured after 24 hrs by agar well diffusion method; assay type: functional
# Bacillus subtilis [15] = assay: Antibacterial activity against Bacillus subtilis assessed as zone of inhibition measured after 24 hrs by agar well diffusion method; assay type: functional
structure (smiles),measurement,setting,value
CCOC(=O)c1sc(Sc2cc3ccccc3oc2=O)c(-c2nc3ccccc3[nH]2)c1N,zone of inhibition at 25 µg/mL,[1],14 mm
same,zone of inhibition at 25 µg/mL,Escherichia coli [2],19 mm
Cc1c(C)c(C)c(Cn2c[n+](Cc3cc(=O)oc4cc(O)ccc34)c3ccccc32)c(C)c1C,IC50,[3],7.84 µM
O=c1oc2ccccc2cc1/C(Cn1cnc2ccccc21)=N\OCc1ccc(Cl)cc1,MIC,Bacillus subtilis [4],0.95 µg/mL
same,MIC,Staphylococcus aureus [5],1.56 µg/mL
same,MIC,Pseudomonas aeruginosa [6],3.12 µg/mL
same,MIC,Escherichia coli [7],3.12 µg/mL
O=c1oc2ccccc2c(Nc2nc3ccccc3[nH]2)c1[N+](=O)[O-],zone of inhibition at 500 µg/disc,Staphylococcus aureus [8],23 mm
O=C(CC(Sc1nc2ccccc2[nH]1)c1ccccc1)c1cc2ccccc2oc1=O (configuration not stated),IC50,[9],35000 µg/mL
same,MIC,Pseudomonas aeruginosa [10],2200 µg/mL
COc1ccc(N2CC(c3cc(=O)oc4cc(C)ccc34)c3nc4ccccc4n3C2)cc1 (configuration not stated),Activity,Mus musculus,52.61%
O=C(Cc1cc(=O)oc2ccccc12)Nc1nc2ccccc2[nH]1,Time,Metaphire sieboldi,14 min
O=c1oc2ccccc2c(O)c1C(Sc1nc2ccccc2[nH]1)c1ccc(O)cc1 (configuration not stated),IC50,[11],9.82 µg/mL
same,diameter of the inhibition zone (DIZ),Aspergillus flavus [12],18 mm
same,MIC,Aspergillus flavus [13],200 µg/mL
same,diameter of the inhibition zone (DIZ),Escherichia coli [14],17 mm
same,diameter of the inhibition zone (DIZ),Bacillus subtilis [15],19 mm
